In patent US20040063680A1, “Method of treating stroke” (priority 2003, published 2004) one finds melting point data, which are given here for one compound.

A word on the melting point: it is the temperature of the solid-liquid transition. With `CC(C)S(=O)(=O)NCC(C)(F)c1ccc(-c2ccc(CC#N)cc2)cc1` (stereo not shown) [Example 9, 2-{4-[4-(1-fluoro-1-methyl-2-{[(methylethyl)sulfonyl]amino}ethyl)phenyl]phenyl}ethanenitrile], the melting point lay within 155 to 157 °C.
